Results published in patent US20170007619A1, “High Dose Dehydroepiandrosterone as Anticancer Treatment With Multi-faceted Reconstitution of Otherwise Depleted Metabolites” (priority 2015, published 2017).
Entries after “also recorded” stand apart in the source; their conditions may differ.

Experiments:
[1] = Side effects of HD DHEA and their prevention by reconstitution; format: in vivo, dogs; conditions: for DHEA-induced ocular (ophthalmic) inflammation on reconstitution: dogs administered DHEA, IPA (and BH4) added; for susceptibility to infections under DHEA with concurrent reconstitution: dogs and cats; for susceptibility to infections under DHEA with concurrent reconstitution / fluid retention symptoms under DHEA with concurrent reconstitution: concurrent BH4, potassium nitrate and IPA; for fluid retention symptoms under DHEA with concurrent reconstitution: dogs
Text: Table 1. Physical symptoms associated with HD DHEA-induced Nitric Oxide (NO) depletion.

[2] = Depletion and reconstitution of metabolites in dogs treated with HD DHEA; format: in vivo; conditions: for ubiquinone levels with supplementation in DHEA-treated animals: supplementation with ubiquinone and tocotrienols
Protocol: FIG. 4. […] For IPA quantitation, preliminary in vitro studies were performed in which DHEA-treated and control HT-29SF cells were exposed to [^3H]-mevalonic acid (saponified; data not shown). […] For ease of presentation, pretreatment values for all 3 determinations (BH4, IPA and ubiquinone) were given a value of 1, with treatment values presented as their respective fraction thereof. Male and female dogs had blood or other specimens drawn pretreatment, and then following 90 days of 10 mg/kg DHEA±reconstitution protocol.
FIG. 6. […] Fifteen ml blood samples were drawn and the buffy coat was isolated by low speed centrifugation in the standard manner. […] AMP, ADP and ATP were quantitated. […] For ease of presentation, pretreatment values are presented with a value of 1, with treatment values presented as their respective fraction thereof.
FIG. 8. […] Ten mg of intestinal mucosa was analyzed for each animal. […] Results are presented as percentage of values in pretreatment dogs, mean±SEM.
FIG. 10. […] 24 hour urine was collected from neutered male and female animals in amber glass containment vessels. To 100 ml of urine was added 1 ml of concentrated HCL as preservative. […] These same dogs were then administered DHEA (10 mg/kg)±the reconstitution regimen which included the monoamine mix described above. This treatment continued for 90 days, at which time further urine specimens were collected and assayed for norepinephrine. The data are reported as the mean±SEM.
FIG. 11. […] Before treatment, 10-15 ml blood samples were taken from male and female neutered dogs, and plasma was collected by low speed centrifugation by the standard method.

[3] = biological target: Glucose-6-phosphate dehydrogenase (G6PD) (Homo sapiens, UniProt P11413); conditions: cited from earlier work
Glucose-6-phosphate dehydrogenase (G6PD), sequence (P11413 whole entry, species assumed): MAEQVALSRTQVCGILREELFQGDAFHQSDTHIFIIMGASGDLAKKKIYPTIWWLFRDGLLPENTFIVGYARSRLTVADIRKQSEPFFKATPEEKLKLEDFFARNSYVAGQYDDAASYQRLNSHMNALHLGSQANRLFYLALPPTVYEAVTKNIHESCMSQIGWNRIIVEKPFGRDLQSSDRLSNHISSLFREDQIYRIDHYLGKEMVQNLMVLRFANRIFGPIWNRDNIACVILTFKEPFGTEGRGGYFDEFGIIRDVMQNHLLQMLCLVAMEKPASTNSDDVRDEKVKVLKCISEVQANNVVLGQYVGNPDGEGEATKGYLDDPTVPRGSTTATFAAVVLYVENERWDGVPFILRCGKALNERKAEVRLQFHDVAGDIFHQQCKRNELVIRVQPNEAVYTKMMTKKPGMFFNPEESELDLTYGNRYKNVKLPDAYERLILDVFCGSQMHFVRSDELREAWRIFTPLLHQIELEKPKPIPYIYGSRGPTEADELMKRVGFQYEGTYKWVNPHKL

statin-treated cells = conditions: cited from earlier work
[4] = tested on: 1,2-dimethylhydrazine-induced colonic tumors, which metastasize to the liver; assay: Carcinogen (1,2-dimethylhydrazine)-induced tumors in dogs ± HD DHEA (Table 2); format: in vivo
Text: Table 2. Decreased tumor volume and increased longevity in dogs administered HD DHEA to treat […] tumors. […] Organotropic carcinogens produce tumors in specific organs. Dimethylhydrazine produces exclusively colonic tumors, which metastasize to the liver. In this series of experiments 13 dogs were exposed to DMH only, and 13 were exposed to DMH followed by treatment with HD DHEA.

spontaneous cancers = assay: HD DHEA in cancer stricken dogs (spontaneous cancers, Table 3); format: in vivo
Text: In preliminary experiments we exposed human colonic carcinoma HT29SF cells to various doses of DHEA and assessed the effects of such treatment upon cell cycle kinetics.
Table 3. Decreased tumor volume, increased longevity (compared to historical controls), and improved quality of life in dogs with spontaneous cancers.

[5] = tested on: human colonic carcinoma HT29SF cells; assay: Flow cytometric cell cycle analysis of HT-29SF cells exposed to DHEA; format: cell-based
[6] = DMH followed by HD DHEA, Student's t test
[7] = tissues of animals administered HD DHEA
[8] = tissues of dogs administered HD DHEA

## CC(O)C(O)C1CNc2nc(N)[nH]c(=O)c2N1 (stereo not shown) [BH4, tetrahydrobiotperin]
[1]
  DHEA-induced ocular (ophthalmic) inflammation on reconstitution: prevents
  susceptibility to infections under DHEA with concurrent reconstitution: eliminated
  fluid retention symptoms under DHEA with concurrent reconstitution: eliminated
[2]; DHEA-treated animals
  dopamine, norepinephrine and epinephrine levels on replenishment of BH4: restoring normal or near normal

## C[C@]12C=CC(=O)C=C1CC[C@@H]1[C@@H]2C(=O)C[C@@]2(C)[C@H]1CC[C@]2(O)C(=O)CO [prednisone]
[3]
  G6PD inhibition: does not inhibit G6PD

## CC(C)=CCNc1ncnc2nc[nH]c12 [Isopentenyladenine]
statin-treated cells
  activity in restoring DNA synthesis relative to mevalonate: approximately 100 fold

## O=[N+]([O-])[O-].[K+] [potassium nitrate]
[1]; animals undergoing HD DHEA plus potassium nitrate
  symptoms associated with NO depletion: eliminating
[1]
  susceptibility to infections under DHEA with concurrent reconstitution: eliminated
  fluid retention symptoms under DHEA with concurrent reconstitution: eliminated
[2]; potassium nitrate as NO donor
  replenishment of NO in animals undergoing HD DHEA: can replenish NO

## CC(C)=CCNc1ncnc2c1ncn2[C@@H]1O[C@H](CO)[C@@H](O)[C@H]1O [IPA, N6-Δ2-isopentenyladenosine]
[1]
  DHEA-induced ocular (ophthalmic) inflammation on reconstitution: prevents; also recorded: completely prevent
  susceptibility to infections under DHEA with concurrent reconstitution: eliminated
  fluid retention symptoms under DHEA with concurrent reconstitution: eliminated

## C[C@]12CC[C@H](O)CC1=CC[C@@H]1[C@@H]2CC[C@]2(C)C(=O)CC[C@@H]12 [DHEA, Dehydroepiandrosterone]
[4]; 13 dogs DMH only vs 13 DMH followed by HD DHEA
  number of tumors induced, control vs HD DHEA-treated dogs: not statistically different
[4]; [6]
  number and total weight of hepatic metastases, control vs HD DHEA-treated dogs: statistically significant
  weight of the individual colonic tumors, control vs HD DHEA-treated dogs: statistically significant
[1]; HD DHEA without reconstitution
  side effects observed with HD DHEA: motor incoordination sometimes occurs; also recorded: susceptibility to infections, particularly in the ear and eye; also recorded: induction of vasoconstriction; also recorded: Fluid retention; also recorded: auto-inflammatory-like disorder
Spontaneous cancers; HD DHEA
  longevity: significant improvements in longevity
  tumor volume: decreases in tumor volume
Spontaneous cancers; HD DHEA supplemented with specific metabolites
  quality of life: increases in quality of life
[5]; HT29SF cells exposed to various doses of DHEA
  effect on cell cycle kinetics: arrested cells in the G1 phase of the cell cycle
[3]
  G6PD inhibition: potent uncompetitive inhibitor of G6PD
[2]; animals administered HD DHEA
  NO level during HD DHEA: depleted
[2]; buffy coat lymphocytes of dogs treated with DHEA, HPLC
  total pools of isopentenylated tRNA: depleted
[2]; continuous treatment at doses capable of inducing HD DHEA
  ubiquinone levels, continuous DHEA treatment: decline; also recorded: depleted
[2]; dogs administered HD DHEA
  one carbon pool products (e.g., AMP, ADP, ATP; purines, pyrimidines, S-adenosylmethionine) during HD DHEA: profoundly depleted
[2]; over the short term
  ubiquinone levels, short term DHEA exposure: increased
[2]; [7]
  BH4 level during HD DHEA: depleted
  IPA level during HD DHEA: becomes depleted
[2]; [8]
  important monoamines during HD DHEA: depleted
  phenylalanine levels during HD DHEA: increased

## tocotrienols
[2]; DHEA-treated animals
  combination of ubiquinone and tocotrienols vs ubiquinone alone, retaining ubiquinone levels: more effective
[2]
  ubiquinone levels with supplementation in DHEA-treated animals: maintains normal or near normal ubiquinone levels

## COC1=C(OC)C(=O)C(C/C=C(\C)CC/C=C(\C)CC/C=C(\C)CC/C=C(\C)CC/C=C(\C)CC/C=C(\C)CC/C=C(\C)CC/C=C(\C)CC/C=C(\C)CCC=C(C)C)=C(C)C1=O [ubiquinone]
[2]; DHEA-treated animals
  combination of ubiquinone and tocotrienols vs ubiquinone alone, retaining ubiquinone levels: more effective
[2]
  ubiquinone levels with supplementation in DHEA-treated animals: maintains normal or near normal ubiquinone levels

## C[C@@](O)(CCO)CC(=O)O [mevalonic acid]
[5]; addition of mevalonic acid and nucleosides to DHEA-treated HT29SF cells
  reversal of DHEA-induced cell cycle arrest: partly or completely reversed

## N[C@@H](Cc1ccc(O)c(O)c1)C(=O)O [L-DOPA]
[1]; dog, in vivo
  emesis: can lead to emesis in some dogs
